From US9561228B2 (Celgene Avilomics Research, Inc., priority 2013, dated 2017)

Key:
[1] = tested on: ERK1/2 phosphorylation of p90RSK in HCT116 cells; assay: Detection of total and phospho-RSK by MSD ELISA (HCT116); assay type: cell-based; settings: Homo sapiens, HCT-116, read-out: ERK1/ERK2 PRSK HCT116 EC50
Procedure: Detection of Total and Phospho-RSK by MSD ELISA (HCT116)
(§1) The protocol below describes an assay to measure the kinase activity of ERK1/2 to phosphorylate a substrate, p90RSK, in the presence or absence of a test compound.
HCT116 cells were grown in RPMI/10% FBS. Prior to the assay, 50,000 cells per well were plated in a 96 well flat bottom plate. Cells were cultured overnight in an incubator at 37° C.
Compound stocks were 10 mM in DMSO. A 1000× dilution was made in DMSO. 1 uL of the DMSO solution was transferred to 1 ml RPMI/10% FBS in a deep well plate. Media in the cell plate was discarded, and 100 uL of the compound-containing media was added. The preparation was incubated at 37° C. for 2 hrs.
Preparation of cell lysates are described below.
pRSK or total RSK MSD Assay
(§2) MSD plates: Blank MSD plates were coated with 30 uL capture antibody (BD 610226) at a final concentration of 1 ug/mL in PBS. Both pRSK and total RSK MSD assays used the same capture antibody at the same concentration. Antibody stock concentration was 250 ug/mL. Once antibody solution was added to MSD plate, the sides were tapped to be certain it was coated completely (visual inspection). It was then covered and placed at 4° C. overnight on a level surface.
Block MSD Plate: The coating antibody was removed and the plate was washed on a plate washer in MSD wash buffer. The last bit of wash solution was tapped out and 150 uL/well 3% BSA (MSD Blocker A) in MSD wash buffer was added. The preparation was placed on a shaker at room temperature for at least an hour.
Add samples: Media was removed from compound-treated cells and replaced with 55 uL/well MSD cell lysis buffer containing protease and phosphotase I & II inhibitors. The preparations was incubate on a shaker in a cold room for 30-45 min. The blocked MSD plate was washed on a plate washer, and the last bit of wash solution was tapped out. Next was added 50 uL (of the 55 uL) cell lysate in a well-well transfer. The preparation was covered and incubated on shaker at room temp for 2 hours. The lysate was then removed and washed on plate washer 3 times. The last bit of wash buffer was then tapped out and replaced with 25 uL/well detection antibody (described below).
For pRSK detection, a pRSK antibody stock of 21 ug/mL was prepared as follows: 1 ug/mL pRSK Ser380 antibody (Cell Signaling Technology, Cat. #9335)+1:750 anti-rabbit SulfoTag (from MSD, R32AB-1) in 1% BSA in MSD wash buffer.
(§3) For total RSK detection, a total RSK antibody stock of 200 ug/mL was prepared as follows: 1 ug/mL total RSK (Santa Cruz sc-231G) antibody+1:750 anti-goat SulfoTag (from MSD, R32AG-1) in 1% BSA in MSD wash buffer.
The plate was incubated for 1 hr at room temperature on a shaker, followed by three washes. The last bit of wash buffer was tapped out. Next, 150 uL/well 1×MSD Read buffer was added and the plate was analyzed by the MSD reader.

[2] = tested on: ERK1/2 phosphorylation of p90RSK in HT29 cells; assay: pRSK MSD Assay in HT29 cells; assay type: cell-based; settings: Homo sapiens, HT-29, read-out: ERK1/ERK2 PRSK MSD HT29 EC50
Outline: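 Phospho-RSK level, read by electrochemiluminescence on RSK-antibody-coated MSD plates with a phospho-RSK/Sulfo-tag detection pair, reports cellular ERK1/2 activity. HT29 cells, kept overnight in 0.1% FBS medium, were exposed to compound for 120 min at 37° C before lysis.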

[3] = tested on: ERK1/2 phosphorylation of p90RSK in A375 cells; assay: Detection of total and phosphor-RSK by MSD ELISA (A375); assay type: cell-based; settings: Homo sapiens, A-375, read-out: ERK1/ERK2 PRSK A375 EC50
Procedure: Detection of Total and Phosphor-RSK by MSD ELISA (A375)
as §1
A375 cells were grown in DMEM/10% FBS. Twenty four hours prior to the assay, 50,000 cells per well were plated in a 96 well flat bottom plate. Once cells attached to the plate, the medium was replaced with 100 ul of DMEM/0.1% FBS. Cells were cultured overnight in an incubator at 37° C.
Compound stock solutions of 10 mM in DMSO were prepared. 1000× dilutions were then prepared in DMSO. 1 uL of DMSO solution was then transferred to 1 ml DMEM/0.1% FBS in a deep well plate. Cell plate media was discarded, followed by addition of 100 uL of the compound-containing media. The preparation was incubated at 37° C. for 2 hrs.
Cell lysates were prepared as described below.
pRSK or Total RSK MSD Assay
as §2, with “added to the MSD plate,” for “added to MSD plate,”
Block MSD Plate: The coating antibody was removed and the plate was washed on a plate washer in MSD wash buffer. The last bit of wash solution was tapped out and 150 uL/well of 3% BSA in MSD wash buffer was added in. The preparation was placed on a shaker at room temperature for at least an hour.
Add samples: Media was removed from compound-treated cells and replaced with 55 uL/well MSD cell lysis buffer containing protease and phosphotase I & II inhibitors. The preparation was incubated on a shaker in a cold room for 30-45 min. The blocked MSD plate was washed a on plate washer, tapping out the last bit of wash solution, followed by addition of 50 uL (of the 55 ul) cell lysate in a well-well transfer. The preparation was covered and incubated on a shaker at room temp for 2 hours. The lysate was removed, washed on a plate washer 3 times, and the last bit of wash buffer was tapped out and replace with 25 uL/well detection antibody (described below).
For pRSK detection, a pRSK antibody stock of 21 ug/mL was prepared as follows: 1 ug/mL pRSK Ser380 antibody (Cell Signaling Technology, Cat. #9335)+1:750 anti-rabbit SulfoTag (Mesoscale Discovery, Cat. # R32AB-1) in 1% BSA in MSD wash buffer.
as §3
The plate was incubated for 1 hr at room temperature on a shaker, followed by three washings. The last bit of wash buffer was tapped out. 150 uL/well 1×MSD Read buffer was added and the plate was then analyzed.

MEK1 activated ERK1 = molecular target: T1, MEK1 activated ERK1 (Homo sapiens, UniProt P27361); assay: Omnia continuous-read kinase assay for potency against MEK1 activated ERK1; assay type: biochemical; settings: ATP at KM, WT
T1 construct: purchased Millipore (Billerica, Mass.) 14-439-K
T1 sequence (P27361 whole entry): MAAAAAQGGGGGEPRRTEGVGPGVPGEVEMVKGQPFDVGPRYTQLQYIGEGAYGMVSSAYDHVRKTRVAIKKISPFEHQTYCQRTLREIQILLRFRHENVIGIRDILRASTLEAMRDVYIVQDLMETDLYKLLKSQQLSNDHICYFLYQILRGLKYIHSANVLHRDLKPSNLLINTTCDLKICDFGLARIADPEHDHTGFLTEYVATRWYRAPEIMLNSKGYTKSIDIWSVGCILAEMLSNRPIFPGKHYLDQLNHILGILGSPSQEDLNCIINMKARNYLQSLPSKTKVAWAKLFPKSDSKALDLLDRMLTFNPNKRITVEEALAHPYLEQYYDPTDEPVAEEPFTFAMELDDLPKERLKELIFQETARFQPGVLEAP
Outline: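 Apparent IC50 came from initial reaction slopes (RFU vs time) plotted against log inhibitor with a variable-slope fit. Reactions were started with ERK1 (4 nM final) added to 50 μM ATP, roughly at its appKM, and 10 μM Sox-conjugated ST17 peptide in 20 mM Tris pH 7.5, 5 mM MgCl2. Fluorescence was monitored every 71 seconds.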

Row | SMILES | EC50 [1] [nM] | EC50 [2] [nM] | EC50 [3] [nM] | IC50 (MEK1 activated ERK1) [nM]
1 | C=CC(=O)Nc1cc(C)ccc1Nc1nc(N[C@H]2CCCN(S(=O)(=O)C=C)C2)ncc1C(F)(F)F [Compound I-277, (S)—N-(5-Methyl-2-((5-(trifluoromethyl)-2-((1-(vinylsulfonyl)piperidin-3-yl)amino)pyrimidin-4-yl)amino)phenyl)acrylamide] | > 1000 | > 1000 | > 1000 | –
2 | C=CC(=O)Nc1cc(C)ccc1Nc1nc(N[C@@H]2CCCN(S(=O)(=O)C=C)C2)ncc1C(F)(F)F [Compound I-278, (R)—N-(5-Methyl-2-((5-(trifluoromethyl)-2-((1-(vinylsulfonyl)piperidin-3-yl)amino)pyrimidin-4-yl)amino)phenyl)acrylamide] | > 1000 | > 1000 | > 1000 | –
3 | C=CC(=O)Nc1cc(C)ccc1Nc1nc(N[C@@H]2CCN(S(=O)(=O)C=C)C2)ncc1C(F)(F)F [Compound I-280, (R)—N-(5-Methyl-2-((5-(trifluoromethyl)-2-((1-(vinylsulfonyl)pyrrolidin-3-yl)amino)pyrimidin-4-yl)amino)phenyl)acrylamide] | > 1000 | – | > 1000 | –
4 | C=CC(=O)Nc1cc(Cl)ccc1Nc1nc(Nc2cc(OC)ncc2C)ncc1C(F)(F)F [Compound I-289, N-(5-Chloro-2-((2-((2-methoxy-5-methylpyridin-4-yl)amino)-5-(trifluoromethyl)pyrimidin-4-yl)amino)phenyl)acrylamide] | 101 to 500 | < 100 | < 100 | –
5 | C=CC(=O)Nc1ccccc1Nc1nc(Nc2cc(OC)nc(N3CCN(S(C)(=O)=O)CC3)c2)ncc1C(F)(F)F [Compound I-290, N-(2-((2-((2-Methoxy-6-(4-(methylsulfonyl)piperazin-1-yl)pyridin-4-yl)amino)-5-(trifluoromethyl)pyrimidin-4-yl)amino)phenyl)acrylamide] | 501 to 999 | > 1000 | > 1000 | –
6 | C=CC(=O)Nc1cc(OC)ccc1Nc1nc(Nc2cc(OC)nc(N3CCN(C(C)=O)CC3)c2)ncc1Cl [Compound I-297, N-(2-((2-((2-(4-acetylpiperazin-1-yl)-6-methoxypyridin-4-yl)amino)-5-chloropyrimidin-4-yl)amino)-5-methoxyphenyl)acrylamide] | < 100 | < 100 | > 1000 | –
7 | C=CC(=O)Nc1ccccc1Nc1nc(Nc2ccnc(NC)c2)ncc1C(F)(F)F [Compound I-321, N-(2-((2-((2-(methylamino)pyridin-4-yl)amino)-5-(trifluoromethyl)pyrimidin-4-yl)amino)phenyl)acrylamide] | > 1000 | > 1000 | > 1000 | –
8 | C=CC(=O)Nc1ccccc1Nc1nc(Nc2c[nH]nc2C)ncc1C(F)(F)F [Compound I-330, N-(2-((2-((3-methyl-1H-pyrazol-4-yl)amino)-5-(trifluoromethyl)pyrimidin-4-yl)amino)phenyl)acrylamide] | > 1000 | – | 101 to 500 | –
9 | C=CC(=O)Nc1cc(C)ccc1Nc1nc(Nc2cnnc(Cl)c2)ncc1C(F)(F)F [Compound I-331, N-(2-((2-((6-chloropyridazin-4-yl)amino)-5-(trifluoromethyl)pyrimidin-4-yl)amino)-5-methylphenyl)acrylamide] | > 1000 | – | 501 to 999 | –
10 | CCC(=O)Nc1cc(C)ccc1Nc1nc(Nc2cc(OC)ncc2C)ncc1C(F)(F)F [Compound I-352, N-(2-((2-((2-methoxy-5-methylpyridin-4-yl)amino)-5-(trifluoromethyl)pyrimidin-4-yl)amino)-5-methylphenyl)propionamide] | > 1000 | – | > 1000 | –
11 | C=CC(=O)Nc1cc(OC(C)(C)C(N)=O)ccc1Nc1nc(Nc2cc(OC)ncc2C)ncc1C(F)(F)F [Compound I-414, N-(5-((1-amino-2-methyl-1-oxopropan-2-yl)oxy)-2-((2-((2-methoxy-5-methylpyridin-4-yl)amino)-5-(trifluoromethyl)pyrimidin-4-yl)amino)phenyl)acrylamide] | – | < 100 | < 100 | < 100
